Assays:
penile artery = assay: CD31 staining and quantification of penile arteries after prostate RT; type: in vivo, Sprague Dawley rats
Protocol: (§1) Thirty-five eight-week-old male Sprague Dawley rats were obtained from Charles River Laboratories (Malvern, Pa.) and pair-housed under standard housing conditions. Animals were divided into 4 groups: Saline/Sham, Saline RT, TPOm/Sham, TPOm/RT.
(§2) TPOm was administered as a single dose via sub-cutaneous injection (3,000 μg/kg) 10 minutes after RT.
Stereotactic image-guided prostate single fraction RT was performed as published previously (Kimura et al., J. Sex Med. 9(6):1535-49 (2012)). In brief, rats were anesthetized and immobilized on a polystyrene block. A CT scan was performed to image the entire pelvis using a GE Discovery RT590 (GE Healthcare, Little Chalfont, UK). Individualized treatment plans were prepared for each rat using the Eclipse treatment planning system (Varian Medical Systems, Palo Alto, CA). […]
Penises were snap-frozen in liquid nitrogen and stored at −80° C. until use. […] CD31 expression was then quantified by highlighting only the CD31 stained portion surrounding each vessel, and obtaining a pixel count of the stained region, using a uniform threshold across all images. […]
(§3) Statistical analysis was completed using Prism 6 (GraphPad, LaJolla, CA). […] Rat weight was assessed using a two-way repeated measures ANOVA.

[1] = mouse, in vivo
Protocol: Male and female mice of at least 8 weeks of age were transferred to a non-barrier facility and group housed throughout the experiments.
Mice were anesthetized with 80/8 mg/kg ketamine/xylazine i.p. injection. Mice were placed in cylindrical lead jigs that shielded the entire body with the exception of the left ear pinna and were irradiated using an Orthovoltage X-ray 320 irradiator (Precision X-ray Inc.; North Branford, CT) at a dose rate of 203 cGy/minute (320 kVp/10 mA with a 2 mm Al filter).
TPOm was reconstituted in sterile saline, sterile filtered, aliquoted, and stored at −20° C. until use. Immediately prior to injection, aliquots were thawed and diluted. Mice received 300 μg/kg of TPOm, sub-cutaneously, six hours after radiation.
Mice were euthanized with 50 μL Euthasol (Virbac, Fort Worth, TX) injected intraperitoneally. After mice became non-responsive to toe pinch, but prior to heartbeat cessation, 500 μL of blood was collected by cardiac puncture via heparinized syringe, and immediately vortexed with 20 μL heparin. CBC analysis was conducted using an IDEXX ProCyte Dx Hematology analyzer by the Duke University Veterinary Diagnostic Laboratory.

erectile function = assay: Intracavernous pressure (ICP) measurements, radiation-induced erectile dysfunction; type: in vivo, Sprague Dawley rats
Protocol: as §1, §2
(§4) Stereotactic image-guided prostate single fraction RT was performed as published previously (Kimura et al., J. Sex Med. 9(6):1535-49 (2012)). In brief, rats were anesthetized and immobilized on a polystyrene block. A CT scan was performed to image the entire pelvis using a GE Discovery RT590 (GE Healthcare, Little Chalfont, UK). Individualized treatment plans were prepared for each rat using the Eclipse treatment planning system (Varian Medical Systems, Palo Alto, CA). The prostate and rectum were contoured, with the primary treatment volume generated by expansion of the prostate by 1 mm followed by subtraction of the rectum expanded by 1 mm. A single, dynamic conformal arc plan using a beam energy of 6 MV was normalized to deliver 20 Gy to 95% of the primary treatment volume in a single fraction with partial sparing of the rectum. The majority of the bladder, the penis and the testes were excluded from the field. The rat was then treated on a NovalisTx radiosurgery linac (Brainlab AG, Munich, DE and Varian Medical Systems) using cone beam computed tomography prior to treatment with bony image guidance within the same anesthesia window as planning. Sham irradiated rats were anesthetized and immobilized on a polystyrene block without irradiation.
For intracavernous pressure (ICP) measurements, a previously published protocol was followed (Kimura et al., J. Sex Med. 8(8):2215-26 (2011)). […] MAP and ICP were recorded using LabChart 7 software (ADInstruments, Colorado Spring, CO), and expressed as a ratio to minimize inter-rat differences in baseline pressure and effects of anesthesia.
as §3

internal pudendal artery = assay: Ultrasonographic measurement of hydralazine-induced vasodilation after prostate RT; type: in vivo, Sprague Dawley rats
Protocol: as §1, §2, §4
Following ICP measurements, acoustic gel was applied to the prostate area and a mouse high frequency echo transducer (MS5505) was applied to the internal pudendal artery. […] Reproducible US placement was verified by using the same US-measured distance to the pubic bone in all animals. […] Arterial diameter was measured using the vascular package for Vevo 2100 software.
as §3

[2] = Rat weight gain after 20 Gy targeted prostate RT; type: in vivo, Sprague Dawley rats
Protocol: as §1, §2
as §4, with “The majority of the bladder, the penis and the testes were excluded from the field. The rat was then treated on a NovalisTx radiosurgery linac (Brainlab AG, Munich, DE and Varian Medical Systems) using cone beam computed tomography prior to treatment with bony image guidance within the same anesthesia window as planning. Sham irradiated rats were anesthetized and immobilized on a polystyrene block without irradiation.” left out
as §3

[3] = 3,000 μg/kg; administered at multiple time points; whole body radiation; cited from earlier work
ear vasculature [4] = assay: Murine ear vein model: vascular permeability (FITC-dextran, intravital microscopy, Patlak analysis); type: in vivo, Flk1-mCherry mice; settings: TPOm following radiation; days 3 and 7 post-irradiation
Excerpt: (§5) Immediately prior to injection, aliquots were thawed and diluted.
(§6) Mice were anesthetized via isoflurane (2%, mixed with oxygen) and the ear was chemically depilated (Nair™) and cleaned with 70% ethanol. The mouse was placed on a heated stage underneath a Zeiss Observer.Z1 (Carl Zeiss AG, Oberkochen, Germany) inverted microscope. The irradiated ear was affixed to a plexi-glass slide using double-sided tape. Images were acquired using Zen Imaging software (Carl Zeiss AG, Oberkochen, Germany). The vascular endothelial cells in Flk1-mCherry mice express mCherry, which was visualized using a Zeiss Texas Red filter (Ex. 560/40; Em. 630/75). Acridine orange and FITC-dextran were visualized using a Zeiss eGFP/FITC/Alexa488 filter (Ex. 470/40; Em. 525/50).
After orienting the mouse on the microscope, a 30G needle attached to a syringe with Tygon Microbore tubing catheter (Harvard Apparatus) was inserted into the tail vain. Z-stack images of both the FITC and mCherry channels were acquired every 10 seconds, and 0.5 mg of FITC-conjugated 70 kDa dextran injected through the catheter after the third set image of images was collected. […]
Model (0.1) postulates that the change in tissue concentration at time t is proportional to CB(t-Δ), concentration of dextran in the vasculature at a delay Δ. […] In this setting, the quantity of interest is k1, the permeability rate. […]

ear vasculature [5] = assay: Murine ear vein model: leukocyte-endothelial cell (L/E) interactions (acridine orange intravital microscopy); type: in vivo, Flk1-mCherry mice
Excerpt: as §5, §6
After orienting the mouse on the microscope, 0.5 mg of acridine orange (Sigma, St. Louis, MO; dissolved in sterile saline) was injected intravenously. […] Four venules per mouse were identified, based on their diameter, and the number of leukocytes that rolled past three pre-selected points in each venule were counted. The vessel diameter (D) and free-flowing leukocyte velocities (V) were also measured, and used to calculate shear rate, defined as (8×V)/D. All videos were analyzed by researchers blinded to the treatment groups. […]
B), and slopes were calculated for each individual mouse using GraphPad Prism. […]

For “methoxypolyethyleneglycol20000-propionyl-L-Isoleucyl-L-Glutamyl-Glycyl-L-Prolyl-L-Threonyl-L-Leucyl-L-Arginyl-L-Glutaminyl-L-2-Naphthylalanyl-L-Leucyl-L-Alanyl-L-Alanyl-L-Arginyl-Sarcosyl-Ne-(methoxypolyethyleneglycol20000-propionyl-L-Isoleucyl-L-Glutamyl-Glycyl-L-Prolyl-L-Threonyl-L-Leucyl-L-Arginyl-L-Glutaminyl-L-2-Naphthylalanyl-L-Leucyl-L-Alanyl-L-Alanyl-L-Arginyl-Sarcosyl-)-Lysinamide [TPOm]”, which “RT-induced decrease in penile artery cross-sectional area” value (penile artery; TPOm/RT rats, nine weeks post-RT (FIG. 3B)) is on record?
The value was “not seen”.

What about the “CD31 density (CD31+ pixels/μm artery perimeter)” value (penile artery; pair-wise comparison between treatment groups (FIG. 3C)) of the same substance?
The value was “no pair-wise differences”.

And the “effect on total leukocytes, neutrophils or lymphocytes” value [1]?
Its value is “no significant differences”.

And the “mean ICP:MAP versus unirradiated rats treated with saline” value (erectile function; TPOm alone, no RT)?
The value was “not significantly different”.

What about the “ED penetrance (ICP:MAP ratio not greater than 0.6)” value (erectile function; TPOm following 20 Gy prostate RT, 9 weeks) of the same substance?
Its value is 67%.

And the “prevention of prostate RT (20 Gy) induced erectile dysfunction” value (erectile function; single dose of TPOm 10 minutes post RT, ICP tested 9 weeks after RT (FIG. 4))?
Its value is “not prevented”.

And the “change in pudendal artery diameter in response to hydralazine” value (internal pudendal artery; TPOm following 20 Gy prostate RT, 0.4 mg/kg hydralazine, 9 weeks post-RT)?
The value was 24.1%±7.2%.

What about the “protection from impaired pudendal artery vasodilation following prostate RT” value (internal pudendal artery; nine weeks post-RT, diameter before and after hydralazine (FIG. 2)) of the same substance?
Its value is “protected rats from impaired pudendal artery vasodilation”.

And the “increase in pudendal artery diameter following hydralazine infusion” value (internal pudendal artery; non-irradiated rats, TPOm alone, 0.4 mg/kg hydralazine, 9 weeks)?
The value was 10.4%±10%.

And the “mean rate of body weight gain” value ([2]; TPOm/RT, 20 Gy prostate RT, 3,000 μg/kg s.c. 10 minutes after RT)?
The value was 28.6±3.9 g/week.

What about the “mean rate of body weight gain” value ([2]; TPOm/sham (no RT), 3,000 μg/kg s.c. single dose) of the same substance?
Its value is 37.7±3.3 g/week.

What about the “survival compared to placebo” value [3] of the same substance?
The value was “substantial survival benefit”.

What about the “permeability rates versus non-irradiated controls” value (ear vasculature [4]) of the same substance?
The value was “not significantly different from non-irradiated controls”.

What about the “average slope of shear rate vs. L/E interactions” value (ear vasculature [5]; 6 Gy to the ear, 300 μg/kg TPOm s.c. six hours later, 24 hours post-irradiation) of the same substance?
Its value is −8.7±6.4.

And the “L/E interaction at higher shear rates after RT” value (ear vasculature [5]; FIG. 9C)?
Its value is “prevented L/E interaction at higher shear rates”.
